Holding throughout (assay): IA-DTB cysteine engagement
Format in all cases: binding

In experiment [1] the target is T1, ACTL8_C197 (Homo sapiens, UniProt Q9H568).
T1 construct: endogenous in cells; host or cells: 22Rv1
T1 sequence (Q9H568 1-366): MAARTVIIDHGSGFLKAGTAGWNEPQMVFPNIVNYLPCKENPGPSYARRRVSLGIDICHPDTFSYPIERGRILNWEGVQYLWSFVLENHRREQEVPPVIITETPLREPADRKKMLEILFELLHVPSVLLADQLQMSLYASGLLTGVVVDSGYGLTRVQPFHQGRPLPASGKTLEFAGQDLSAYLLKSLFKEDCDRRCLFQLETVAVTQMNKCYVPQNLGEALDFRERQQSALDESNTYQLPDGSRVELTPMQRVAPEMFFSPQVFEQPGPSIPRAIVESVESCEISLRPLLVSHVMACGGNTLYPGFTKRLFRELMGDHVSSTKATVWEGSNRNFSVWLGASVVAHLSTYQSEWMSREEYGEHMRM
To be noted: 22Rv1 cells, 20 μM probe, 1 h, relative to DMSO. Put shortly: (§1)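 Probe-exposed cells were lysed, IA-DTB-labeled, trypsinized and streptavidin-enriched. Multiplexed TMT quantitation gave engagement ratios versus DMSO, with non-tryptic peptides excluded and intensities normalized to median summed signal.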

Experiment [2] concerns the target T2, GNPAT_C54 (Homo sapiens, UniProt O15228).
T2 construct: endogenous in cells; host or cells: 22Rv1
T2 sequence (O15228 1-680): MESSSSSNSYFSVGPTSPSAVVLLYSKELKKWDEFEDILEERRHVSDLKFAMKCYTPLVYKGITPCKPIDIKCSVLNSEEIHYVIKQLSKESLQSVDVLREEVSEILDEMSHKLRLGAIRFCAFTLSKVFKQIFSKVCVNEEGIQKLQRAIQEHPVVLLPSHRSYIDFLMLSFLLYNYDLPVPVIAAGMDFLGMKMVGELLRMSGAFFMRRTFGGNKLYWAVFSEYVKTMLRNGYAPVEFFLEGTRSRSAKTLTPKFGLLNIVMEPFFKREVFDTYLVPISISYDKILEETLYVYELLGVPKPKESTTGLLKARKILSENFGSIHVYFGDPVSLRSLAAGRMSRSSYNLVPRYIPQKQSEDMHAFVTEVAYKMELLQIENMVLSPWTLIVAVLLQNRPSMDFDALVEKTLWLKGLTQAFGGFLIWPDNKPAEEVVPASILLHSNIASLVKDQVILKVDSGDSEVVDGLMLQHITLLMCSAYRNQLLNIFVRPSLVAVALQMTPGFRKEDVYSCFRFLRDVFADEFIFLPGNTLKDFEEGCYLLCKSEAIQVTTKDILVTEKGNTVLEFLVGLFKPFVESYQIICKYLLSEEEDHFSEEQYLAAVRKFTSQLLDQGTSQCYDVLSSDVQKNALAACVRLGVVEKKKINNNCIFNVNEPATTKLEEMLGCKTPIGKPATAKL
To be noted: 22Rv1 cells, relative to DMSO; for % engagement GNPAT_C54: 20 μM probe, 1 h; for % engagement GNPAT_54: 5 μM probe, 1 h (FIG. 5B). In short, it runs like this: as §1

Experiment [3] addresses T3, MGST3_C56 (Homo sapiens, UniProt O14880).
T3 construct: endogenous in cells; host or cells: 22Rv1
To be noted: 22Rv1 cells, 20 μM probe, 1 h, relative to DMSO. In short, it runs like this: as §1

Experiment [4] addresses T4, RAB39B_C23 (Homo sapiens, UniProt Q96DA2).
T4 construct: endogenous in cells; host or cells: 22Rv1
T4 sequence (Q96DA2 1-213): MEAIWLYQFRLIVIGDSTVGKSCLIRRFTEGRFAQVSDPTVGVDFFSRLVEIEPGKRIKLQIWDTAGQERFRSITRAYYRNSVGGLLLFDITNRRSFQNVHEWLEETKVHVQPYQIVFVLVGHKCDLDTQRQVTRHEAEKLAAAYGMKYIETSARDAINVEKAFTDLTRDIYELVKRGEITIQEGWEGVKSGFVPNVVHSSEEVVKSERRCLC
To be noted: 22Rv1 cells, 20 μM probe, 1 h, relative to DMSO. Put shortly:
as §1

The target in experiment [5] is T5, TMEM256-PLSCR3_C126 (Homo sapiens, UniProt Q9NRY6).
T5 construct: endogenous in cells; host or cells: 22Rv1
T5 sequence (Q9NRY6 whole entry): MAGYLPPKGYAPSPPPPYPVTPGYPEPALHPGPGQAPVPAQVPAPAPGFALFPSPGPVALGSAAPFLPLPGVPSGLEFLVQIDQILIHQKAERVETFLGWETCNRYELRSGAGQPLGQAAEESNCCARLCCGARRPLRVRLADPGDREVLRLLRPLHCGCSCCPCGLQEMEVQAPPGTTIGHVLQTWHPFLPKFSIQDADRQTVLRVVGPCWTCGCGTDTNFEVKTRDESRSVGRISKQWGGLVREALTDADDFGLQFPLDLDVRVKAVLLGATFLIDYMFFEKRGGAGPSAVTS
Particulars: 22Rv1 cells, 20 μM probe, 1 h, relative to DMSO. In short, it runs like this: as §1

T3 sequence (O14880 whole entry): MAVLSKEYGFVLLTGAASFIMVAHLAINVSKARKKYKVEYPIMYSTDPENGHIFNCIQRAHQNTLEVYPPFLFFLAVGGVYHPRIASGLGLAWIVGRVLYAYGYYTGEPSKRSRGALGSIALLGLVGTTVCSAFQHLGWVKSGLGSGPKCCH

As to `C=CC(=O)N1C[C@@H](c2ccc(Br)cc2)[C@H]1C(=O)Nc1cccc2cccnc12` [MY-1A, (2S,3R)-1-acryloyl-3-(4-bromophenyl)-N-(quinolin-8-yl)azetidine-2-carboxamide], the “% engagement ACTL8_C197” value in experiment [1] is given as 14%. Further, the “% engagement GNPAT_C54” value in experiment [2] amounted to 88.5%. The “% engagement MGST3_C56” value in experiment [3] turned out to be 58.75%. Also, the “% engagement RAB39B_C23” value in experiment [4] was determined as 24.5%. Further, the “% engagement TMEM256-PLSCR3_C126” value in experiment [5] is listed as 81%.

Regarding `C=CC(=O)N1C[C@H](c2ccc(Br)cc2)[C@@H]1C(=O)Nc1cccc2cccnc12` [MY-1B, (2R,3S)-1-acryloyl-3-(4-bromophenyl)-N-(quinolin-8-yl)azetidine-2-carboxamide], in experiment [1], the “% engagement ACTL8_C197” value amounted to 66.25%. Moreover, in experiment [2], the “% engagement GNPAT_54” value was found to be 73.17% and the “% engagement GNPAT_C54” value was found to be 91.5%. Besides, the “% engagement MGST3_C56” value in experiment [3] came to 58%. The “% engagement RAB39B_C23” value in experiment [4] was determined as 18.5%. In experiment [5], the “% engagement TMEM256-PLSCR3_C126” value is listed as 86%.

Take `C=CC(=O)N1C[C@H](c2ccc(Br)cc2)[C@H]1C(=O)Nc1cccc2cccnc12` [MY-3A, (2S,3S)-1-acryloyl-3-(4-bromophenyl)-N-(quinolin-8-yl)azetidine-2-carboxamide]: the “% engagement ACTL8_C197” value in experiment [1] was 3.25%. In addition, in experiment [2], the “% engagement GNPAT_C54” value is 54.25%. Also, the “% engagement MGST3_C56” value in experiment [3] is reported as 63.5%. Moreover, in experiment [4], the “% engagement RAB39B_C23” value is recorded as −53%. In experiment [5], the “% engagement TMEM256-PLSCR3_C126” value was determined as 58%.

As for `C=CC(=O)N1C[C@H](c2ccc(Br)cc2)[C@H]1C(=O)Nc1cccc2cccnc12` [MY-3B, (2S,3S)-1-acryloyl-3-(4-bromophenyl)-N-(quinolin-8-yl)azetidine-2-carboxamide], the “% engagement ACTL8_C197” value in experiment [1] is given as 36.75%. Besides, in experiment [2], the “% engagement GNPAT_C54” value stood at 77.5%. Besides, the “% engagement MGST3_C56” value in experiment [3] was determined as 73.5%. Besides, in experiment [4], the “% engagement RAB39B_C23” value is on record as 67%. In experiment [5], the “% engagement TMEM256-PLSCR3_C126” value is 66%.

Turning to `CC#CC(=O)N1C[C@H](c2ccc(Br)cc2)[C@@H]1C(=O)Nc1cccc2cccnc12` [MY-45B, (2R,3S)-3-(4-bromophenyl)-1-(but-2-ynoyl)-N-(quinolin-8-yl)azetidine-2-carboxamide], the “% engagement GNPAT_54” value in experiment [2] came out at 51.83%.

(Values after patent US20250034216A1, “STEREOSELECTIVE COVALENT LIGANDS FOR ONCOGENIC AND IMMUNOLOGICAL PROTEINS” (The Scripps Research Institute, priority 2021, published 2025).)
